Patent US6124323A, “4-substituted piperidine analogs and their use as subtype selective NMDA receptor antagonists” (Warner-Lambert Company, priority 1998, dated 2000)
Counter-ions that a name gives are not always drawn. Like-named read-outs stand apart in the source and are kept apart here.

Columns and labels:
Format in all cases: cell-based
[1] = target: T1, NMDA receptor subunits 1A/2B (Rattus norvegicus, UniProt P35439+Q00960); test: Electrophysiological assay at NMDA receptor subunits expressed in Xenopus oocytes, 1A/2B
T1 construct: expressed in transfected cells; host or cells: Xenopus laevis oocytes (cRNA injection; clones from Dr. P. H. Seeburg)
T1 sequence (Q00960 27-1482, other chains not shown): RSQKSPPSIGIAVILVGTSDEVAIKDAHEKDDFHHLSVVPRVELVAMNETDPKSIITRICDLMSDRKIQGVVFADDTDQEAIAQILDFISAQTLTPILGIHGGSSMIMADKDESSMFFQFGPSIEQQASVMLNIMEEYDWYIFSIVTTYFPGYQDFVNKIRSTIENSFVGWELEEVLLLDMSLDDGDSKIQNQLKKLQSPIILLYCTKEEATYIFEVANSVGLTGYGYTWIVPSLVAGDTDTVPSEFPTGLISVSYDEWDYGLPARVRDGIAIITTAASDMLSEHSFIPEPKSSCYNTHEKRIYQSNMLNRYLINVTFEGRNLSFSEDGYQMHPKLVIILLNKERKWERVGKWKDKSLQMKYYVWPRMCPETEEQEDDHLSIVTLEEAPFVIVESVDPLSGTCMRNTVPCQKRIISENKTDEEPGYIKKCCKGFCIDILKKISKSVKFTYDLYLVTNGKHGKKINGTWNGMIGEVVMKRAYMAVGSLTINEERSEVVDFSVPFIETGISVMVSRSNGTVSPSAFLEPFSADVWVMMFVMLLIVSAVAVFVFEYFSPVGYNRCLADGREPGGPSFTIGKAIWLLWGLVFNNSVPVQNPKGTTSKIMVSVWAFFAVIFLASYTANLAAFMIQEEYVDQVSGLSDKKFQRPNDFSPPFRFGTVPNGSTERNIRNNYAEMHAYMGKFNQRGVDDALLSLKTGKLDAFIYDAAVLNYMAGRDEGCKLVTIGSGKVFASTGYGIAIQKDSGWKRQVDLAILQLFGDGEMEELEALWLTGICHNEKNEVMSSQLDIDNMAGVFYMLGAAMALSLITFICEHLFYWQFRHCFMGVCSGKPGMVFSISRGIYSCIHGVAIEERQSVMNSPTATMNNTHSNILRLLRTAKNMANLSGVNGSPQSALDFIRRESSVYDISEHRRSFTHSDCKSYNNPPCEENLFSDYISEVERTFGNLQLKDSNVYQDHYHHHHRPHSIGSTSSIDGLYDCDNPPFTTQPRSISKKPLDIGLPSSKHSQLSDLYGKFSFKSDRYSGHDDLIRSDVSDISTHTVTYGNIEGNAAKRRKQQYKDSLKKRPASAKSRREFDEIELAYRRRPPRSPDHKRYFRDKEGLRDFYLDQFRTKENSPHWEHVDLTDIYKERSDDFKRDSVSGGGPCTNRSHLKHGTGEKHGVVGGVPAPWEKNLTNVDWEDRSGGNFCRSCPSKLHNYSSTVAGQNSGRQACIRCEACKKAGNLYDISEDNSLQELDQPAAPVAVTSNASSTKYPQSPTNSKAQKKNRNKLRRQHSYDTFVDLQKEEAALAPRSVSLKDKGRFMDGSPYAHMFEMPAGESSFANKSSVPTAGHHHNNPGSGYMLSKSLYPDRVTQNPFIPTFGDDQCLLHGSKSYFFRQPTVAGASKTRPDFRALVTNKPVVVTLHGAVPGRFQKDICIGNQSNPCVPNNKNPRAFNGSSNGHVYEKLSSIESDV
Protocol: (§1) Many of the properties of native NMDA receptors are seen in recombinant homomeric NR1 receptors. These properties are altered by the NR2 subunits. Recombinant NMDA receptors expressed in Xenopus oocytes have been studied by voltage-clamp recording, as has developmental and regional expression of the mRNAs encoding NMDA receptor subunits. Electrophysiological assays were utilized to characterize the actions of compounds at NMDA receptors expressed in Xenopus oocytes. The compounds were assayed at four subunit combinations of cloned rat NMDA receptors, corresponding to three putative NMDA receptor subtypes [Moriyoshi, et al. Nature 1991, 354, 31-37; Monyer et al, Science 1992, 256, 1217-1221; Kutsuwada et al, Nature 1992, 358, 36-41; Sugihara et al, Biochem. Biophys Res. Commun. 1992, 185, 826-832].
(§2) Electrophysiological Assays at NMDA Receptor Subunits
(§3) Preparation of RNA. cDNA clones encoding the NR1A, NR2A, NR2B, NR2C and NR2D rat NMDA receptor subtypes were provided by Dr. P. H. Seeburg (see, Moriyoshi et al., Nature (Lond.) 354:31-37 (1991); Kutsuwada et al., Nature (Lond.) 358:36-41 (1992) Monyer et al., Science (Washington, D.C.) 256:1217-1221 (1992); Ikeda et al., FEBS Lett. 313:34-38 (1992); Ishii et al., J. Biol. Chem. 268:2836-2843 (1993) for details of these clones or their mouse homologs). The clones were transformed into appropriate host bacteria and plasmid preparations were made with conventional DNA purification techniques. A sample of each clone was linearized by restriction enzyme digestion and cRNA was synthesized with T3 RNA polymerase. The cRNA was diluted to 400 ng/μl and stored in 1 μl aliquots at -80° C. until injection.
(§4) The Xenopus oocyte expression system. Mature female Xenopus laevis were anaesthetized (20-40 min) using 0.15% 3-aminobenzoic acid ethyl ester (MS-222) and 2-4 ovarian lobes were surgically removed. Oocytes at developmental stages IV-VI (Dumont, J. N., J. Morphol. 136:153-180 (1972)), were dissected from the ovary still surrounded by enveloping ovarian tissues. Follicle-enclosed oocytes were micro-injected with 1:1 mixtures of cRNA:NR1A+NR2A, 2B, 2C or 2D; injecting ~2,5, or 20 ng of RNA encoding each receptor subunit. NR1A encoding cRNA was injected alone at ~20 ng. Oocytes were stored in Barth's medium containing (in mM):NaCl, 88; KCl, 1; CaCl2, 0.41; Ca(NO3)2, 0.33; MgSO4, 0.82 NaHCO3, 2.4; HEPES 5, pH 7.4, with 0.1 mg/ml gentamicin sulphate. While oocytes were still surrounded by enveloping ovarian tissues the Barth's medium was supplemented with 0.1% bovine serum. Oocytes were defolliculated 1-2 days following injections by treatment with collagenase (0.5 mg/ml Sigma Type I for 0.5-1 hr) (Miledi and Woodward, J. Physiol. (Lond.) 416:601-621 (1989)) and subsequently stored in serum-free medium.
(§5) Electrical recordings were made using a conventional two-electrode voltage clamp (Dagan TEV-200) over periods ranging between 3-21 days following injection. (Woodward et al., Mol. Pharmacol. 41: 89-103 (1992)). Oocytes were placed in a 0.1 ml recording chamber continuously perfused (5-15 ml min^-1 ) with frog Ringer's solution containing (in mM):NaCl, 115; KCl, 2; CaCl2, 1.8; HEPES, 5; pH 7.4. Drugs were applied by bath perfusion. Using oocytes expressing different subunit combinations of NMDA receptor, NMDA currents were activated by co-application of glutamate (100 μm) and glycine (1-100 μm). Inhibitory potency of the novel antagonists was assessed on responses elicited by fixed concentrations of glutamate and glycine, by measuring reductions in current induced by progressively increasing concentrations of antagonist. Concentration-inhibition curves were fit with equation 1.
(§6) I/Icontrol =1/(1+([antagonist]/10^-pIC50)^n) Eq. 1
(§7) in which Icontrol is the current evoked by agonists alone, pIC50 =-log IC50, IC50 is the concentration of antagonist that produces half maximal inhibition, and n is the slope factor. (De Lean et al., Am. J. Physiol. 235:E97-102 (1978)). […]

[2] = target: T2, NMDA receptor subunits 1A/2A (Rattus norvegicus, UniProt P35439+Q00959); test: Electrophysiological assay at NMDA receptor subunits expressed in Xenopus oocytes, 1A/2A; conditions: glutamate 100 μm and glycine 1-100 μm
T2 construct: expressed in transfected cells; host or cells: Xenopus laevis oocytes (cRNA injection; clones from Dr. P. H. Seeburg)
T2 sequence (Q00959 20-1464 limits assumed, other chains not shown): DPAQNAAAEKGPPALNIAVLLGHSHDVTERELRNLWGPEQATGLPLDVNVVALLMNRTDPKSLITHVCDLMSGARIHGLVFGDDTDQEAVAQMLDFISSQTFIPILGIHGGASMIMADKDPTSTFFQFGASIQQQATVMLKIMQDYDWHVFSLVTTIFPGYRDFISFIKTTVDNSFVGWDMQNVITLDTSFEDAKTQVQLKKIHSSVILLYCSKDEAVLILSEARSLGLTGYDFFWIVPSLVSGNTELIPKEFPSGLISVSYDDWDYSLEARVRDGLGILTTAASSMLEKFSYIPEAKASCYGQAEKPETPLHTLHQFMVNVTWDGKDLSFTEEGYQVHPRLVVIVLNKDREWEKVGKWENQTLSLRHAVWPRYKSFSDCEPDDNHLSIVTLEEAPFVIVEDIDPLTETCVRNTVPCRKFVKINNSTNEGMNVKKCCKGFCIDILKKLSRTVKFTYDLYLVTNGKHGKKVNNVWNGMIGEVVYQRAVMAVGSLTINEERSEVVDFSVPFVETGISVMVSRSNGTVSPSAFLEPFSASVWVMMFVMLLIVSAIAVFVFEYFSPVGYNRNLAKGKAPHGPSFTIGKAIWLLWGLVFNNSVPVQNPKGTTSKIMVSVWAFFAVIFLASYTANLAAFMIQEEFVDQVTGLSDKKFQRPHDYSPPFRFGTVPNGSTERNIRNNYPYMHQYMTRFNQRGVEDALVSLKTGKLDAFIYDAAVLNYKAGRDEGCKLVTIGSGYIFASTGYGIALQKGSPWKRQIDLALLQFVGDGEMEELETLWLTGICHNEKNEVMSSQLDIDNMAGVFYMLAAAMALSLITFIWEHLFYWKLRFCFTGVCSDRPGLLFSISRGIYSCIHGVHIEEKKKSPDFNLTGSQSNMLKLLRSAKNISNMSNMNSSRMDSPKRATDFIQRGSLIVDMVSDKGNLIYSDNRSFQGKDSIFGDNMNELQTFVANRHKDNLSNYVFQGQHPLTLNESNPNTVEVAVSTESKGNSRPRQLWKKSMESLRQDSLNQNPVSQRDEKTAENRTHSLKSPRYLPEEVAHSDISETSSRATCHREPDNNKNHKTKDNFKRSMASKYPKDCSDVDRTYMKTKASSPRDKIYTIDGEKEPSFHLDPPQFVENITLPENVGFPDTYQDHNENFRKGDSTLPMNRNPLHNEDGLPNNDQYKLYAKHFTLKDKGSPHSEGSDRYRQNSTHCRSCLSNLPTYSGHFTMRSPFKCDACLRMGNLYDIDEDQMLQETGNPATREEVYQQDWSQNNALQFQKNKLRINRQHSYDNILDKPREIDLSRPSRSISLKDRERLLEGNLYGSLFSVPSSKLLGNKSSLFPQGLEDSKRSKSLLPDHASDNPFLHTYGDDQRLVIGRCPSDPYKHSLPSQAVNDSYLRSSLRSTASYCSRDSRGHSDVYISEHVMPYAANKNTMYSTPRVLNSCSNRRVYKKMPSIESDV
Protocol: as §1, §2, §3, §4, §5, §6, §7

[3] = target: T3, NMDA receptor subunits 1A/2C (Rattus norvegicus, UniProt P35439+Q00961); test: Electrophysiological assay at NMDA receptor subunits expressed in Xenopus oocytes, 1A/2C
T3 construct: expressed in transfected cells; host or cells: Xenopus laevis oocytes (cRNA injection; clones from Dr. P. H. Seeburg)
T3 sequence (Q00961 20-1237, other chains not shown): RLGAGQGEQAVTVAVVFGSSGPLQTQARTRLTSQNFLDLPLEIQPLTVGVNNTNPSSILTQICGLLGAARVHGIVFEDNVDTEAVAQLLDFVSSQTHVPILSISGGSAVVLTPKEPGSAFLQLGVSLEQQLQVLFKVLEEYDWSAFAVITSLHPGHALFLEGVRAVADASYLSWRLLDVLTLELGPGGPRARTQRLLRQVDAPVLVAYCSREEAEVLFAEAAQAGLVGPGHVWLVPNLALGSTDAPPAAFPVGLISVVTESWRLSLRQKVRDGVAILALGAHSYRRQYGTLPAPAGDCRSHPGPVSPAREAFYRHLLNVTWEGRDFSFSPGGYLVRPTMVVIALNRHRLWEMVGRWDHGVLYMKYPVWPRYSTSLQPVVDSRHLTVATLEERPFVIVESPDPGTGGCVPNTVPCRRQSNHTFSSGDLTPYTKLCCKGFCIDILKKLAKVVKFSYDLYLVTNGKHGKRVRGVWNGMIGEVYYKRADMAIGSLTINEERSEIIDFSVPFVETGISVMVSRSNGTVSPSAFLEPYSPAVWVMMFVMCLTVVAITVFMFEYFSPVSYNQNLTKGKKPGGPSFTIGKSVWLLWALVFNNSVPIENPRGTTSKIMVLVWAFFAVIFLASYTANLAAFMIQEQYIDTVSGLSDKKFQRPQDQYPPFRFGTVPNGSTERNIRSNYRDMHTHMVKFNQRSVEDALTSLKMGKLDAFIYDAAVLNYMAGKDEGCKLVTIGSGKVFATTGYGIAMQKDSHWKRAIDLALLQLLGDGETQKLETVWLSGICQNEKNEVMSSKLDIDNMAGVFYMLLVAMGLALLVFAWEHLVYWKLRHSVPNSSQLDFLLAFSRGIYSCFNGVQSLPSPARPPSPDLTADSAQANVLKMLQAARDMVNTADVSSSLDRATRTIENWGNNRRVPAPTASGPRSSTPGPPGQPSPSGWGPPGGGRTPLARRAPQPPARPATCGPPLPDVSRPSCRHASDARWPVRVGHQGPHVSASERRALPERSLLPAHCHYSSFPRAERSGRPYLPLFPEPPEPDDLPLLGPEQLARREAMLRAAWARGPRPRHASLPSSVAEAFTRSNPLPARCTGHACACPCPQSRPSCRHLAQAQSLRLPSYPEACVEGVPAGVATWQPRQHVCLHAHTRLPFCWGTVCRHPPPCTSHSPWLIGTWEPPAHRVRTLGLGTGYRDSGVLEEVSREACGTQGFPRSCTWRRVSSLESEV
Protocol: as §1, §2, §3, §4, §5, §6, §7

[4] = Xenopus oocytes, glutamate 100 μm and glycine 1-100 μm, read-out: Subunits IC50, 1A/2B
[5] = Xenopus oocytes, glutamate 100 μm and glycine 1-100 μm, read-out: Subunits IC50, 1A/2C

Row | IC50 [1, 4] [µM] | IC50 [2] [µM] | IC50 [3, 5] [µM] | Structure (SMILES) | IC50 [1] [µM] | IC50 [3] [µM]
1 | 9.5 | 60 | > 100 | Nc1c(OCCN2CCC(Cc3ccccc3)CC2)cccc1[N+](=O)[O-] [Ex. 52, 4-Benzyl-1-[2-(2-amino-3-nitrophenoxy)ethyl]piperidine] | – | –
2 | 10 | – | > 100 | Clc1ccc(OCCN2CCC(Cc3ccccc3)CC2)cc1 [Ex. 11, 4-Benzyl-1-(2-(4-chlorophenoxy)ethyl)piperidine hydrochloride] | – | –
3 | 0.7 | 5.5 | > 100 | NNC(=O)Cc1cccc(OCCN2CCC(Cc3ccccc3)CC2)c1 [Ex. 20, 4-Benzyl-1-(2-(3-(hydrazinocarbonylmethyl)phenoxy)ethyl)piperidine] | – | –
4 | 0.25 | 62 | > 300 | Oc1ccc(CCN2CCC(Cc3ccccc3)CC2)cc1 [Ex. 108, 1-[2-(4-Hydroxyphenyl)ethyl]-4-benzylpiperidine hydrochloride] | – | –
5 | 30 | 200 | 200 | Fc1ccc(OCCN2CCC(Cc3cccc(F)c3)CC2)cc1 [Ex. 113, 4-(3-Fluorobenzyl)-1-(2-(4-fluorophenoxy)ethyl)piperidine hydrochloride] | – | –
6 | 100 | 80 | 80 | c1ccc(COc2ccc(OCCN3CCC(Cc4ccccc4)CC3)cc2)cc1 [Ex. 98, 1-[2-(4-Benzyloxyphenoxy)ethyl]-4-benzylpiperidine hydrochloride] | – | –
7 | 6 | – | > 100 | O=[N+]([O-])c1ccccc1OCCN1CCC(Cc2ccccc2)CC1 [Ex. 60, 4-Benzyl-1-[2-(2-nitrophenoxy)ethyl]piperidine] | – | –
8 | 6 | 80 | > 100 | O=[N+]([O-])c1cccc(OCCN2CCC(Cc3ccccc3)CC2)c1 [Ex. 62, 4-Benzyl-1-[2-(3-nitrophenoxy)ethyl]piperidine] | – | –
9 | 0.2 | – | > 300 | Cn1c(=O)[nH]c2ccc(OCCN3CCC(Cc4ccccc4)CC3)cc21 [Ex. 193, 4-Benzyl-1-(2-(3-methyl-2-oxobenzamidazol-5-oxy)ethyl)piperidine] | – | –
10 | 0.03 | 60 | 270 | Oc1ccc(CCCN2CCC(Cc3ccc(Cl)cc3)CC2)cc1 [Ex. 107, 1-[3-(4-Hydroxyphenyl)propyl]-4-(4-chlorobenzyl)piperidine hydrochloride] | – | –
11 | 8 | – | > 100 | Cc1nc2cc(OCCN3CCC(Cc4ccccc4)CC3)ccc2[nH]1 [Ex. 71C, 4-Benzyl-1-[2-(2-methylbenzimidazol-5-oxy)ethyl]piperidine] | – | –
12 | 0.5 | – | > 100 | OCCc1cccc(OCCN2CCC(Cc3ccc(Cl)cc3)CC2)c1 [Ex. 29, 4-(4-Chlorobenzyl)-1-(2-(3-(2-hydroxyethyl)phenoxy)ethyl)piperidine] | – | –
13 | 0.1 | – | 90 | Oc1ccc(OCCN2CCC(Cc3ccc4ccccc4c3)CC2)cc1 [Ex. 141, 1-(2-(4-Hydroxyphenoxy)ethyl)-4-((2-naphthyl)methyl)piperidine hydrochloride] | – | –
14 | 15 | – | > 100 | Fc1ccc(CC2CCN(CCOc3ccc(Cl)cc3)CC2)cc1 [Ex. 34, 4-(4-Fluorobenzyl)-1-(2-(4-chlorophenoxy)ethyl)piperidine hydrochloride] | – | –
15 | 6 | – | > 100 | O=[N+]([O-])c1ccc(OCCN2CCC(Cc3ccccc3)CC2)cc1 [Ex. 12, 4-Benzyl-1-(2-(4-nitrophenoxy)ethyl)piperidine hydrobromide] | – | –
16 | 5 | – | > 100 | COc1ccccc1OCCN1CCC(Cc2ccccc2)CC1 [Ex. 68, 4-Benzyl-1-[2-(2-methoxyphenoxy)ethyl]piperidine] | – | –
17 | 3 | – | > 100 | CCOC(=O)Cc1cccc(OCCN2CCC(Cc3ccccc3)CC2)c1 [Ex. 17, 4-Benzyl-1-(2-(3-(ethoxycarbonylmethyl)phenoxy)ethyl)piperidine] | – | –
18 | 22 | – | > 100 | OC1(Cc2ccccc2)CCN(CCCc2ccccc2)CC1 [Ex. 91, 4-Benzyl-4-hydroxy-1-(3-phenylpropyl)piperidine hydrochloride] | – | –
19 | 60 | – | > 100 | Fc1ccc(NC2CCN(CCOc3ccc(F)cc3)CC2)cc1 [Ex. 39, 1-(2-(4-Fluorophenoxy)ethyl)-4-(N-(4-fluoroanilino)piperidine hydrochloride] | – | –
20 | 22 | – | > 100 | OC1(Cc2ccccc2)CCN(CCCOc2ccccc2)CC1 [Ex. 48, 4-Benzyl-4-hydroxy-1-(3-phenoxypropyl)piperidine] | – | –
21 | 0.3 | – | 190 | Oc1ccccc1OCCN1CCC(Cc2ccc(F)cc2)CC1 [Ex. 158, 4-(4-Fluorobenzyl)-1-[2-(2-hydroxyphenoxy)ethyl]piperidine hydrochloride] | – | –
22 | 0.12 | – | > 300 | Oc1ccc(OCCN2CCC(O)(Cc3ccccc3)CC2)cc1 [Ex. 164, 4-Benzyl-4-hydroxy-1-[2-(4-hydroxyphenoxy)ethyl]piperidine hydrochloride] | – | –
23 | 28 | 80 | – | Fc1ccc(OCCN2CCC(Cc3ccc4c(c3)CCCC4)CC2)cc1 [Ex. 140, 1-(2-(4-Fluorophenoxy)ethyl)-4-((5,6,7,8-tetrahydro-2-naphthyl)methyl)piperidine hydrochloride] | – | –
24 | 20 | – | > 100 | CC(=O)Nc1ccc(OCCN2CCC(Cc3ccccc3)CC2)cc1NC(C)=O [Ex. 71A, 4-Benzyl-1-[2-(3,4-bisacetamidophenoxy)ethyl]piperidine] | – | –
25 | 12 | – | > 100 | Clc1ccc(CC2CCN(CCOc3ccc(Cl)cc3)CC2)cc1 [Ex. 26, 4-(4-Chlorobenzyl)-1-(2-(4-chlorophenoxyethyl)piperidine hydrochloride] | – | –
26 | 1.5 | – | > 100 | OC1CN(CCCOc2ccccc2)CCC1c1cccc(C(F)(F)F)c1 (stereo not drawn) [Ex. 46, 3-Hydroxy-1-(3-phenoxypropyl)-4-(3-trifluoromethylphenyl)piperidine hydrochloride] | – | –
27 | 4 | – | > 100 | COc1ccc(CC2CCN(CCOc3ccc(F)cc3)CC2)cc1 [Ex. 35, 1-(2-(4-Fluorophenoxy)ethyl)-4-(4-methoxybenzyl)piperidine hydrochloride] | – | –
28 | – | – | – | ClCCN1CCC(Cc2ccccc2)CC1 [Ex. 49, 4-Benzyl-1-(2-chloroethyl)piperidine] | 5 | > 100
29 | 3 | – | > 100 | N#Cc1ccc(OCCN2CCC(Cc3ccccc3)CC2)cc1 [Ex. 14, 4-Benzyl-1-(2-(4-cyanophenoxy)ethyl)piperidine] | – | –

Row | Structure (SMILES) | IC50 [1, 4] [µM] | IC50 [2] [µM] | IC50 [3, 5] [µM] | IC50 [1] [µM] | IC50 [3] [µM]
30 | c1ccc(CC2CCN(CCOc3ncnc4ccccc34)CC2)cc1 [Ex. 66] | 10 | – | > 100 | – | –
31 | c1ccc(CCCN2CCC(Cc3ccccc3)CC2)cc1 [Ex. 84, 4-Benzyl-1-(3-phenylpropyl)piperidine hydrochloride] | 2.2 | – | > 100 | – | –
